# Test results reported in patent US20240156856A1, “NOVEL APPLICATIONS OF HYALURONIC ACID FOR TREATMENT OF PAIN AND PRURITIS” (THE REGENTS OF THE UNIVERSITY OF CALIFORNIA, priority 2022, published 2024).
# Experiments:
# [1] = test system: rats with paclitaxel CIPN; assay: Paclitaxel CIPN mechanical hyperalgesia, Randall-Selitto paw-withdrawal test; type: in vivo, Sprague-Dawley rats
# Protocol: (§1) Experimental animals. Experiments were performed on 220-400 g male and female Sprague-Dawley rats, purchased from Charles River Laboratories (Hollister, CA, USA), housed three per cage, under a 12-hour light/dark cycle, in a temperature- and humidity-controlled animal care facility at the University of California, San Francisco. Food and water were available ad libitum. Experimental protocols were approved by the University of California, San Francisco, Institutional Animal Care and Use Committee, and adhered to the National Institutes of Health Guidelines for the care and use of laboratory animals.
# (§2) Measurement of nociceptive threshold. Mechanical nociceptive threshold was quantified with an Ugo Basile Analgesymeter (Stoelting, Wood Dale, IL, USA), used to perform the Randall-Selitto paw-withdrawal test [61; 68; 69]. This device uses a dome-shaped plinth to apply a mechanical force that increases linearly with time, to the dorsum of a rat's hindpaw. To perform the Randall-Selitto paw-withdrawal test, rats were placed in cylindrical acrylic restrainers with lateral ports that allow access to the hind paw, as described previously. Rats were acclimatized to the testing procedure by placing them in restrainers for 1 h per day for 3 consecutive daily training sessions, and for 30-40 min prior to experiments.
# (§3) Mechanical nociceptive threshold is defined as the force, in grams, applied by the plinth to the dorsum of the hindpaw, at which a rat withdraws its paw from the stimulus. Baseline paw-withdrawal threshold is defined as the mean of three readings taken before administration of test agents. To minimize experimenter bias, individuals conducting experiments were blinded to experimental treatments. Each experiment was performed on a different group of rats. Data are presented as mechanical nociceptive threshold, in grams (g) or percentage change from preintervention baseline.
# Hyaluronans were initially dissolved in distilled water (dH2O) at a concentration of 10 μg/μL, stock solution, and further diluted by adding DMSO with three final concentrations of hyaluronan (1, 2 and 4 μg/μL), protamine or terpene; unless otherwise stated, the final concentration of DMSO was 75%. The DMSO vehicle was 75% DMSO in 0.9% saline. In one experiment, 500-1200 kDa hyaluronan was administered topically in 0.9% saline vehicle. PGE2 was dissolved in 0.9% saline at the same final concentration that we previously injected intradermally (100 ng/5 μL). In the experiments in which hyaluronan was dissolved in protamine or terpene vehicle, protamine was first dissolved in distilled water (dH2O) to a concentration of 5 μg/μ1, stock solution of hyaluronan was combined with protamine at the final concentration of 2 μg/μ1, in a volume of 3 μl, for topical administration; terpene was first dissolved in dH2O at the concentration of 2 μg/μ1, then hyaluronan was dissolved in stock solution of terpene to its final concentration of 2 μg/μ1, in a volume of 3 μl, for topical administration).
# Paclitaxel CIPN: Paclitaxel was dissolved in Cremophor EL and ethanol (1:1) [1; 6; 20; 22] and diluted in 0.9% saline to a concentration of 1 mg/mL, just prior to its intraperitoneal (i.p.) administration (1 mg/kg, i.p.) [19; 42] to rats briefly anesthetized with isoflurane (2.5% in O2), every other day for a total of 4 doses.
# Hyaluronans (30 μL) were administered topically on the dorsum of the hind paw, dispensed from a P200 pipette (Gilson, Middleton, WI, USA) with a plastic pipette tip and then spread manually.
# Antisense oligodeoxynucleotides (ODNs).
# Before use, ODNs were reconstituted in nuclease-free 0.9% saline and then administered by the intrathecal (i.t.) route. As described previously, rats were anesthetized with isoflurane (2.5% in O2) and 120 μg of ODN, in a volume of 20 μL, injected i.t., using a syringe ([…]) attached to a 29-gauge hypodermic needle that was inserted into the subarachnoid space, between the L4 and L5 vertebrae. […]
# [2] = test system: PGE2 hyperalgesia in male and female rats; assay: PGE2-induced mechanical hyperalgesia, Randall-Selitto paw-withdrawal test; type: in vivo, Sprague-Dawley rats; conditions: for PGE2-induced hyperalgesia (mechanical nociceptive threshold): topical 2 μg/μL in 30 μL DMSO vehicle, 30 and 60 min after PGE2
# Protocol: as §1, §2, §3
# Hyaluronans were initially dissolved in distilled water (dH2O) at a concentration of 10 μg/μL, stock solution, and further diluted by adding DMSO with three final concentrations of hyaluronan (1, 2 and 4 μg/μL), protamine or terpene; unless otherwise stated, the final concentration of DMSO was 75%. The DMSO vehicle was 75% DMSO in 0.9% saline. In one experiment, 500-1200 kDa hyaluronan was administered topically in 0.9% saline vehicle. PGE2 was dissolved in 0.9% saline at the same final concentration that we previously injected intradermally (100 ng/5 μL). […]
substance,measurement,setting,value
hyaluronan [500-1200 kDa hyaluronan],hyperalgesia induced by paclitaxel,"[1]; female rats given i.t. GPR30 antisense or mismatch ODN, topical 2 μg/μL, 30 μL",only attenuated the hyperalgesia induced by paclitaxel in the GPR30 antisense-treated group
same,hyperalgesia induced by paclitaxel,"[1]; gonad intact female rats, topical 2 μg/μL, 30 μL in DMSO vehicle",did not attenuate hyperalgesia
same,hyperalgesia induced by paclitaxel,"[1]; male rats given i.t. CD44 antisense or mismatch ODN, topical 2 μg/μL, 30 μL in DMSO",attenuated the hyperalgesia induced by paclitaxel only in the CD44 mismatch-treated group
same,time at which anti-hyperalgesia was still present after the second administration,"[1]; male rats, reapplied at the same site after first effect wore off, DMSO vehicle",≥ 180 min
same,hyperalgesia induced by paclitaxel,"[1]; male rats, topical 2 μg/μL, 30 μL in DMSO, day 7",attenuated the hyperalgesia induced by paclitaxel
same,"time by which anti-hyperalgesia dissipated, first administration","[1]; male rats, topical 2 μg/μL, 30 μL in DMSO, repeated-administration experiment",≤ 120 min
same,anti-hyperalgesia in paclitaxel-induced CIPN,"[1]; ovariectomized female rats, topical 2 μg/μL, 30 μL in DMSO",induced anti-hyperalgesia of similar magnitude to that observed in gonad intact male rats
same,PGE2-induced hyperalgesia (mechanical nociceptive threshold),[2]; female rats,attenuated PGE2-induced hyperalgesia
same,PGE2-induced hyperalgesia (mechanical nociceptive threshold),[2]; male rats,attenuated PGE2-induced hyperalgesia
same,magnitude of topical anti-hyperalgesia compared with intradermal injection,"[2]; topical, combined with DMSO",anti-hyperalgesia of similar magnitude to that produced by its intradermal injection
